Experiments:
récepteur androgène = target: T1, récepteur androgène (Rattus norvegicus, UniProt P15207); assay: Relative binding affinity (ARL) for the androgen receptor: displacement of tritiated testosterone in prostate cytosol; set-up: species or system rats mâles Sprague. Dawley EOPS; conditions: Incubation 24 hours at 0°C; prostate cytosol of castrated rats; ARL=100 (CH)/(CX), testosterone = 100
T1 construct: Des aliquotes du surnageant obtenu (=cytosol), sont incubées 30 minutes et 24 heures à 0°C; from tissue; host or cells: prostate cytosol of castrated male Sprague-Dawley rats
T1 sequence (P15207 1-902): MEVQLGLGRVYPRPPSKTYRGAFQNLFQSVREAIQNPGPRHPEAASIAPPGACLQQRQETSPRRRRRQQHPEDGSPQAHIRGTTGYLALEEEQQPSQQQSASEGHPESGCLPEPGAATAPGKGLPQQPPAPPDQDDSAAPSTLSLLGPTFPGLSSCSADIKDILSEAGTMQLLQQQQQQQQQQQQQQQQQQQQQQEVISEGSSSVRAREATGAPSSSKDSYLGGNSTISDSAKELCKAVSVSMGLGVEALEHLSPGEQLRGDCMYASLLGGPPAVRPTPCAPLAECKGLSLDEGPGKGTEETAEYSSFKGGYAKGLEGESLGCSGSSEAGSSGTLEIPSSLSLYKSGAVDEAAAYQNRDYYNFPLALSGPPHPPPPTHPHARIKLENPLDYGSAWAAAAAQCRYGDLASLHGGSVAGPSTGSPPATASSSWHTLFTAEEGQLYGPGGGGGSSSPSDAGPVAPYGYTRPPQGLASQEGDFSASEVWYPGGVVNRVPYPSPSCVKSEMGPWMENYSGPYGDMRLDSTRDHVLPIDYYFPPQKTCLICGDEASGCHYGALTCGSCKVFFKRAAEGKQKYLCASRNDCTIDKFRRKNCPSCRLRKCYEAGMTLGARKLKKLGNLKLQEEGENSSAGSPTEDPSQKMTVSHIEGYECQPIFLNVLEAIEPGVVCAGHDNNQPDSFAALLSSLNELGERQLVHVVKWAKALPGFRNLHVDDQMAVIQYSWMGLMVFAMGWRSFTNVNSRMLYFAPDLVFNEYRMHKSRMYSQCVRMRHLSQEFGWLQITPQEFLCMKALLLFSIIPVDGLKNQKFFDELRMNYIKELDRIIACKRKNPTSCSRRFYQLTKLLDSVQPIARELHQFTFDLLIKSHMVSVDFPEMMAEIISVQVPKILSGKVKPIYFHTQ
Experimental: 1) Etude de l'affinité des produits de l'invention pour le récepteur androgène
Des rats mâles Sprague. Dawley EOPS de 180-200 g, castrés de 24 heures, sont sacrifiés, les prostates prélevées, pesées et homogénéisées à 0°C à l'aide d'un potter verre-verre, dans une solution tamponnée (Tris lOmM, saccharose 0,25M, PMSF (phénylméthanesulfonylfluoride) 0,1mM, Molybdate de sodium 20mM, HCl pH 7,4; auxquels on ajoute extemporanément 2mM de DTT (DL dithiothreitol), à raison de 1 g de tissu pour 8 ml de tampon.
L'homogénat est ensuite ultracentrifugé à 0°C, 30 minutes à 209 000 g.
Calcul de l'affinité relative de liaison (ARL).
On trace les 2 courbes suivantes : le pourcentage de l'hormone tritiée liée B/T en fonction du logarithme de la concentration de l'hormone de référence froide et B/T en fonction du logarithme de la concentration du produit froid testé. On détermine la droite d'équation I50=(B/Tmax + B/Tmin)/2. B/T max= % de l'hormone tritiée liée pour une incubation de cette hormone tritiée à la concentration (T). B/T min= % de l'hormone tritiée liée pour une incubation de cette hormone tritiée à la concentration (T) en présence d'un grand excès d'hormone froide (2500.10^-9M) .
Les intersections de la droite I50 et des courbes, permettent d'évaluer les concentrations de l'hormone de référence froide (CH) et du produit froid testé (CX) qui inhibent de 50 % la liaison de l'hormone tritiée sur le récepteur.

[1] = tested on: ornithine décarboxylase rénale; assay: Androgen / anti-androgen activity by assay of renal ornithine decarboxylase in castrated mice given testosterone propionate; type: in vivo, souris mâles SWISS; conditions: with testosterone propionate 3 mg/kg s.c., kidneys 20 hours after treatment, relative to controls given testosterone propionate only; for % d'inhibition de l'ODL Test A: Test A: percutaneous route, 1,5 mg/kg in 10 µl
Experimental: 2) Détermination de l'activité androgène ou anti-androgène des produits de l'invention à l'aide du dosage de l'ornithine décarboxylase.
- Protocole de traitement
20 heures après les traitements, les animaux sont sacrifiés, les reins prélevés, puis homogénéisés à 0°C , à l'aide d'un broyeur téflon-verre dans 10 volumes de tampon Tris-HCl 50 mM (pH 7,4) contenant 250 uM de phosphate de pyridoxal, 0,1 mM EDTA, et 5 mM de dithiothreitol. L'homogenat est ensuite centrifugé à 209000 g pendant 30 mn.
A 37°C, l'ornithine décarboxylase rénale transforme un mélange isotopique d'ornithine froide et d'ornithine tritiée en putrescine froide et putrescine tritiée.
La putrescine est ensuite recueillie sur des papiers sélectifs, échangeurs d'ions. Après séchage, l'excès d'ornithine tritiée et froide non transformée est éliminé, par 3 lavages d'ammoniaque 0,1 M. Les papiers sont séchés, puis la radioactivité est comptée après addition de scintillant Aqualite.
Les résultats sont exprimés en fmoles ([…]) de putrescine tritiée formée/heure/mg de protéines.
Test A : les produits sont administrés par voie percutanée à 1,5 mg/kg sous un volume de 10 µl. Test B : les produits sont administrés par voie orale à 1 mg/kg. Test C : les produits sont administrés par voie orale à 3 mg/kg.

Compound | ARL (affinité relative de liaison) (récepteur androgène) | % d'inhibition de l'ODL Test A [1] | % d'inhibition de l'ODL Test B ([1]; Test B: oral route, 1 mg/kg) | % d'inhibition de l'ODL Test C ([1]; Test C: oral route, 3 mg/kg)
CC1(C)C(=O)N(c2ccc(C#N)c(C(F)(F)F)c2)C(=O)N1CCCCO [Exemple 1, 4-(4,4-diméthyl 2,5-dioxo 3-(4-hydroxybutyl) 1-imidazolidinyl) 2-(trifluorométhyl) benzonitrile] | 31 | 40% | 36% | –
CC1(C)C(=O)N(c2ccc(C#N)c(C(F)(F)F)c2)C(=S)N1CCO [Exemple 2, 4-(4,4-diméthyl 3-(2-hydroxyéthyl) 5-oxo 2-thioxo 1-imidazolidinyl) 2-(trifluorométhyl) benzonitrile] | 163 | 32% | – | 67%
CC1(C)C(=O)N(c2ccc(C#N)c(C(F)(F)F)c2)C(=S)N1CCCO [Exemple 3, 4-(4,4-diméthyl 3-(3-hydroxypropyl) 5-oxo 2-thioxo 1-imidazolidinyl) 2-(trifluorométhyl) benzonitrile] | – | 41% | – | –
CC1(C)C(=O)N(c2ccc(C#N)c(C(F)(F)F)c2)C(=S)N1CCCCO [Exemple 4, 4-(4,4-diméthyl 3-(4-hydroxybutyl) 5-oxo 2-thioxo 1-imidazolidinyl) 2-(trifluorométhyl) benzonitrile] | 300 | 78% | – | –
COCCN1C(=S)N(c2ccc(C#N)c(C(F)(F)F)c2)C(=O)C1(C)C [Exemple 5, 4-(4,4-diméthyl 3-(2-méthoxyéthyl) 5-oxo 2-thioxo 1-imidazolidinyl) 2-(trifluorométhyl) benzonitrile] | 81 | 62% | – | –
CC(C)N1C(=S)N(c2ccc(C#N)c(C(F)(F)F)c2)C(=O)C1(C)C [Exemple 6, 4-(4,4-diméthyl 3-(1-méthyléthyl) 5-oxo 2-thioxo 1-imidazolidinyl) 2-(trifluorométhyl) benzonitrile] | 28 | 35% | – | –

Source: EP0580459B1, “Substituted Phenylimidazolidins, their use as medicaments and their pharmaceutical compositions containing them” (HOECHST MARION ROUSSEL, priority 1992, dated 1994)
